# Laboratory results reported in US11896009B2, “Bioactive composition for improving stress tolerance of plants” (FYTEKO, priority 2015, dated 2024).
# Assay: Antioxidant test, DPPH radical scavenging (Example 9)
# Type: biochemical
# Description: The antioxidant activity of oligoferulates prepared as described in example 1, ferulic acid (W518301, Sigma-Aldrich), gallic acid (27645, Sigma-Aldrich) and ascorbic acid (A0278, Sigma-Aldrich) was determined using a method based on the scavenging of the stable radical 2,2-diphenyl-1-picrylhydrazyl (DPPH) (Brand Williams et al, Food Sci Technol-Lebens Wissens Technol. 1995; 28:25-30) and the results expressed as IC50 (concentration of antioxidant which reduces the free radical DPPH⋅ about 50%). This method is frequently used to predict the antioxidant activities of different molecules.
row,SMILES,antioxidant activity IC50 (concentration which reduces the free radical DPPH about 50%) [µg/mL]
1,O=C1O[C@H]([C@@H](O)CO)C(O)=C1O [ascorbic acid],5
2,COc1cc(/C=C/C(=O)O)ccc1O [ferulic acid],25
3,O=C(O)c1cc(O)c(O)c(O)c1 [gallic acid],2
